From US10912752B2, “Methods and compositions for reducing ocular discomfort” (Brien Holden Vision Institute Limited, priority 2012, dated 2021)
“Also recorded” adds a separate entry of the source.

Columns and labels:
IL-17 = experiment: qRT-PCR of mouse conjunctiva, ICES dry eye model; format: in vivo, C57BL/6 mice; conditions: normalized to GAPDH; for mRNA expression of IL-17 vs PBS treatment group: Schedule 1, Day 21, conjunctiva
Description: (§1) For Schedule 1, six (6×) mice per each group at the end of Day 21 and five (5×) mice from each group at the end of Day 35 post-housing in ICES and undergoing the treatment were sacrificed with an overdose of a mixture of ketamine and xylazine for qRT-PCR evaluation of […] inflammatory responses. On the other hand, for Schedule 2, three (3×) mice were sacrificed at the end of Day 21, and all the other mice were sacrificed at the end of Day 35 post-housing in ICES and undergoing the treatment. Additionally, seven healthy animals which were not housed in ICES and received no treatment were euthanized as healthy controls for comparison.
(§2) For qRT-PCR detection of IL-1β, IL-6, IL-17, TNF-α, and GAPDH, total RNA from conjunctivas (2 eyes/group/schedule) were extracted and pooled from each of the five experimental groups using the RNA isolation kit according to the manufacturer's instructions (PicoPure RNA isolation kit, 40 isolations, Arcturus). cDNA was synthesized from 1-μg of total RNA using random primer and M-MuLV reverse transcriptase. The primer sequences for qRT-PCR detection of these mediators have been designed in preparation for qRT-PCR work (Table 1).
(§3) Expression of IL-1β, IL-6, IL-17, or TNF-α detected at mRNA level from Real-time PCR were normalized to that of the housekeeping gene GAPDH. Total RNA were collected from the pooled conjunctiva from 2 eyes of each group (total 6× eyes per each treatment group were used for qRT-PCR).

TNF-α [1] = experiment: qRT-PCR of mouse conjunctiva, ICES dry eye model; format: in vivo, C57BL/6 mice; conditions: normalized to GAPDH; for mRNA expression of TNF-α vs PBS treatment group: Schedule 1, Day 21, conjunctiva
Description: as §1, §2, §3

IL-6 = experiment: qRT-PCR of mouse conjunctiva, ICES dry eye model; format: in vivo, C57BL/6 mice; conditions: normalized to GAPDH; for mRNA expression of IL-6 vs PBS treatment group: Schedule 1, Day 21, conjunctiva
Description: as §1, §2, §3

IL-1β = experiment: qRT-PCR of mouse conjunctiva, ICES dry eye model; format: in vivo, C57BL/6 mice; conditions: normalized to GAPDH; for mRNA expression of IL-1β vs PBS treatment group: Schedule 1, Day 21, conjunctiva
Description: as §1, §2, §3

HCLE cells = experiment: Flow cytometry cell volume (shrunken cells) under hyperosmotic stress; format: cell-based, human; conditions: 16 h; for population of shrunken cells: 500 mOsm + 10 mM, flow cytometry
Description: Forward scatter of the laser light produced by the flow cytometer is proportional to the volume of the cell. This principle was used to analyse the osmoprotective effect of betaine in restoring the cell volume which is adversely affected due to hypertonicity. Cell populations were gated such that the population of cells showing a greater forward scatter (FSC) constituted the percentage of cells with a volume equal to that of a cell under isotonic conditions. On the other hand, the proportion of side scatter in a flow cytometer represents the cell structure complexity and granularity. […] Cells were exposed to isotonic media (300 mOsM), hyperosmotic media (500 mOsM) and hyperosmotic media containing betaine (500 mOsM media+10 mM betaine) for 16 h after which they were analysed using flow cytometer.
Cell volume and Live/Dead staining via flow cytometry were performed using the Attune® Acoustic focusing Cytometer (Life Technologies™ Applied Biosystems). Annexin V and PI kit (Invitrogen™) was used to analyse the non-apoptotic, and the early and late apoptotic cells. Staining was performed as per manufacturer's instructions. Analysis of Annexin staining was conducted using the blue/violet laser with excitation/emission spectra of 480/500 nm (20 mW) and the PI staining analysis was conducted using blue/red laser with an excitation/emission spectra of 490/635 nm.
Cultured HCLE cells were exposed to culture medium with or without carnitine (10 mM) at 300 mOsm (isotonic) and 500 mOsm (hyperosmotic) for 16 h. Flow cytometry was performed to determine the cell volume changes based on the forward and side scatter values detected.

TNF-α [2] = experiment: TNF-α production by HCLE cells in hyperosmolar medium (ELISA); format: cell-based, human; conditions: 10 mM, 500 mOsm, 16 h, vs hyperosmolar medium without osmolyte
Protocol: Enzyme-linked immunosorbent assay (ELISA) was used to quantify TNF-α. The culture supernatants were collected, centrifuged at 1500 rpm for 10 min to remove cellular debris and stored at −80° C. until processed. Assays were performed according to manufacturer's protocol (R&D Systems, Minneapolis, Minn.).
(§4) Cultured human corneal limbal epithelial (HCLE) cells were exposed to culture medium with or without carnitine (10 mM) at 300 mOsm (isotonic), 450 mOsm (moderate), and 500 mOsm (hyperosmotic) for 16 h. Induction of apoptosis was detected by quantification of the proteolytic activity of caspase-8, caspase-9, or caspase-3/7 using caspase activity assays, and production of tumor necrosis factor (TNF)-α, a known apoptosis inducer, using ELISA. Annexin V and Propidium iodine (PI) staining was performed to detect the percentage of apoptotic cells using confocal microscopy and flow cytometry.

caspase-3/7 = experiment: Caspase-Glo luminescent caspase activity in HCLE under hyperosmotic stress; format: cell-based, human; conditions: 16 h
Protocol: (§5) Caspase-3/7, -8 and -9 activities were assayed using a luminescent assay kit (Promega, Madison, Wis.) according to the manufacturer's instructions. Briefly, 100 μL of Caspase-Glo-3/7, -8 and -9 reagents were added to HCLE at maintained on plastic at 2×10^4/cm^2, mixed and incubated for one hour at room temperature. Luminescence was measured using a SpectraFluor Plus microplate reader.
as §4, with “Cultured human corneal limbal epithelial (HCLE) cells were exposed to culture medium with or without carnitine (10 mM) at 300 mOsm (isotonic), 450 mOsm (moderate), and 500 mOsm (hyperosmotic) for 16 h.” left out

caspase-9 = experiment: as above; format: cell-based, human; conditions: 16 h
Protocol: as §5
as §4, with “Cultured human corneal limbal epithelial (HCLE) cells were exposed to culture medium with or without carnitine (10 mM) at 300 mOsm (isotonic), 450 mOsm (moderate), and 500 mOsm (hyperosmotic) for 16 h.” left out

caspase-8 = experiment: as above; format: cell-based, human; conditions: 16 h; for reduction of caspase-8 activity: 500 mOsm
Protocol: as §5, §4

[3] = Schedule 2, Day 35, conjunctiva

**Q.** With `C[N+](C)(C)CC(=O)[O-]` [betaine, trimethylglycine] as the compound, how does the “mRNA expression of IL-17 vs PBS treatment group” value (IL-17) read?
**A.** The value was “statistically significant reduction”.

**Q.** What about the “mRNA expression of TNF-α vs PBS treatment group” value (TNF-α [1]) of the same compound?
**A.** Its value is “statistically significant reduction”.

**Q.** And the “mRNA expression of TNF-α vs PBS control (C)” value (TNF-α [1]; [3])?
**A.** Its value is “statistically significant reduction”.

**Q.** What about the “mRNA expression of IL-6 vs PBS treatment group” value (IL-6) of the same compound?
**A.** The value was “statistically significant reduction”.

**Q.** And the “mRNA expression of IL-1β vs PBS treatment group” value (IL-1β)?
**A.** The value was “statistically significant reduction”.

**Q.** And the “percentage of healthy (normal volume) cells” value (HCLE cells; 500 mOsm + 10 mM vs 500 mOsm)?
**A.** Its value is “significantly increased”.

**Q.** What about the “population of shrunken cells” value (HCLE cells) of the same compound?
**A.** The value was 11.01%.

**Q.** And the “reduction in TNF-α levels” value (TNF-α [2])?
**A.** Its value is 40%.

**Q.** What about the “reduction of caspase-3/7 activity” value (caspase-3/7; 5 mM, 500 mOsm) of the same compound?
**A.** Its value is 2- to 3 fold.

**Q.** What about the “reduction of caspase-3/7 activity” value (caspase-3/7; 10 mM, 500 mOsm) of the same compound?
**A.** The value was 4- to 5.2 fold.

**Q.** What about the “reduction of caspase-9 activity” value (caspase-9; 5 mM, 500 mOsm) of the same compound?
**A.** Its value is 2- to 3 fold.

**Q.** And the “reduction of caspase-9 activity” value (caspase-9; 10 mM, 500 mOsm)?
**A.** The value was 4- to 5.2 fold.

**Q.** And the “reduction of caspase-8 activity” value (caspase-8; 5 mM)?
**A.** Its value is 2- to 3 fold.

**Q.** What about the “reduction of caspase-8 activity” value (caspase-8; 10 mM) of the same compound?
**A.** The value was 4- to 5.2 fold.

**Q.** What does the source list for `C[N+](C)(C)CC(O)CC(=O)[O-]` (centres unmarked) [carnitine, 3-hydroxy-4-(trimethylazaniumyl)butanoate]?
**A.** mRNA expression of IL-17 vs PBS treatment group (IL-17; listed as B): statistically significant reduction; also recorded: lowest expression level; mRNA expression of IL-17 vs PBS control (C) (IL-17; [3]): statistically significant reduction; mRNA expression of TNF-α vs PBS treatment group (TNF-α [1]; listed as B): statistically significant reduction; also recorded: lowest expression level; mRNA expression of IL-6 vs PBS treatment group (IL-6; listed as B): statistically significant reduction; also recorded: lowest expression level; mRNA expression of IL-6 vs PBS control (C) (IL-6; [3]): statistically significant reduction; mRNA expression of IL-1β vs PBS treatment group (IL-1β; listed as B): statistically significant reduction; also recorded: lowest expression level; mRNA expression of IL-1β vs PBS control (C) (IL-1β; [3]): statistically significant reduction; population of shrunken cells (HCLE cells): ~15%; population of shrunken cells (HCLE cells; listed as L-Carnitine): 18.01%; reduction in TNF-α levels (TNF-α [2]): 25%; decreasing trend for caspase-3/7 activities (caspase-3/7; 10 mM, 500 mOsm): 20%; change in Caspase-3/7 activity (in words) (caspase-3/7; 10 mM, hypertonic medium): significant lowering; reduction in cellular caspase-9 activities (caspase-9; 10 mM, 500 mOsm): 33%; change in Caspase-9 activity (in words) (caspase-9; 10 mM, hypertonic medium): significant lowering; change in Caspase-8 activity (in words) (caspase-8; 10 mM, hypertonic medium): minimum or no visible decline
